Experimental data taken from patent publication US8389541B2, “Inhibitors of protein tyrosine kinase activity” (MethylGene Inc., priority 2007, dated 2013).

How the values were obtained:
[1] = biological target: recombinant human c-Met/HGF receptor (Homo sapiens, UniProt P08581); assay: In vitro receptor tyrosine kinase assay (DELFIA), c-Met/HGF receptor
[2] = biological target: T1, c-Met (Homo sapiens, UniProt P08581); assay: Inhibition of c-Met phosphorylation in MKN45 cells (direct ELISA); assay type: cell-based; settings: 3 h treatment, read-out: CMET ELISA IN MKN45 IC50
T1 construct: endogenous in cells; host or cells: MKN45 gastric carcinoma cells
Excerpt: The following assay is used to determine inhibition of c-Met phosphorylation.
The c-Met receptor is expressed in numerous cancer cell lines derived from tumors of epithelial origin. In MKN45 gastric carcinoma cells the c-Met gene is amplified, resulting in several-fold overexpression of the receptor and its constitutive activation. For this reason constitutively high levels of ERK1/2 are also detected in these cells, independently of HGF-added stimulation (Smolen G A, Sordella R, Muir B, Mohapatra G, Barmettler A, Archibald H, et al. Amplification of MET may identify a subset of cancers with extreme sensitivity to the selective tyrosine kinase inhibitor PHA-665752. Proc Natl Acad Sci USA 2006). We have developed a sensitive method to follow c-Met phosphorylation in these cells. In previous studies with earlier generation c-Met inhibitors, we established that the IC50s for the inhibition of c-Met phosphorylation were identical using this novel ELISA approach and standard western blot procedure, with antibodies directed against the activating autocatalysis tyrosine residues of c-MET (Tyr Y1230-34-35).
Cell treatments: MKN45 cells are seeded into wells of 96-well plates at a density of 3×10^4 cells/well in RPMI medium supplemented with 10% FBS. HA-TPR-RON expressing 293T (clone 18) cells are seeded into wells of 96-well plates at a density of 3×10^4 cells/well in DMEM medium supplemented with 10% FBS. Cells are grown for 48 h prior to treatments with compounds of interest. Inhibitors are added to the medium in triplicate wells at the indicated doses. After 3 h of treatment, media is aspirated and cells are lysed by one freeze-thaw cycle in 50 μL/well hypotonic lysis buffer (25 mM HEPES pH 7.5, 10 mM NaCl with 1 mM 4-(2-aminoethyl)benzenesulfonyl fluoride hydrochloride, 200 μM sodium orthovanadate, 1 mM sodium fluoride, 10 μg/mL of leupeptin, 10 μg/mL of aprotinin/mL, 1 μg/mL of pepstatin and 50 μg/mL Na-p-tosyl-L-lysine chloromethyl ketone hydrochloride.
Detection of phosphorylated c-Met by direct ELISA: Lysate samples (5 μL) from wells of treatment plates are transferred to 80 μL of binding buffer (25 mM HEPES pH 7.5, 200 mM NaCl) in wells of high binding white polysterene 96-well plates (Corning). After an overnight protein binding incubation at 4° C., lysates are aspirated and wells are blocked for 1 h at 37° C. in TBST supplemented with 5% BSA. Plates are incubated with the primary antibodies anti-phospho-Tyrosine (Millipore, 4G10) diluted 1/15000 in TBST supplemented with 5% BSA for 1 h at room temperature. Plates are washed 3 times on a plate washer (SkanWasher, Molecular Devises), and incubated with the reporter antibody […] (Sigma) diluted 1/15000 in TBST supplemented with 5% BSA, for 1 h at room temperature. Plates are washed 3 times with TBST using on a plate washer and subsequently incubated with chemiluminescent substrate solution (ECL, Roche). Luminescence signal is captured on a Polar Star Optima apparatus (BMG LabTech).
Average values of the triplicate samples are used to prepare IC50 curves using a 4-parameter fit model. These curves are calculated using, for example, GraFit 5.0 software. For assay standardization purpose, an internal control is included on each experimental test plate.

[3] = test system: A549 cells; assay: Wound healing assay in A549 cells (HGF-stimulated); assay type: cell-based; settings: Homo sapiens, last dose that inhibited gap closing by more than 25%, 24 h, read-out: A549 WOUND_HEALING IC50
Description: Wound healing assay in A549 cells. A549 cells (ATCC) are seeded in DMEM low glucose medium complemented with 10% FBS into 24-well plates at a density of 7.5×10^4 cells/well and grown to confluence (48 h). Inhibitors were added to the medium at a range of doses (0.00032-10 uM) for 3 h at which point a gap is introduced by scraping cells with a P1000 pipette tip. Cells are then stimulated to migrate by the addition of HGF (in the form of conditioned medium from 293T cells over-expressing the human HGF gene) and the culture is continued for 24 h. […] For the purpose of standardization, a control is carried on every assay plates.

[4] = biological target: T2, VEGF receptor KDR (Homo sapiens, UniProt P35968); assay: In vitro receptor tyrosine kinase assay (DELFIA), VEGF receptor KDR; assay type: biochemical; settings: GST-VEGFR2 806-1356, 0.6 uM ATP; read-out: VEGFR IC50
T2 construct: made in house; host or cells: Sf9 cells (Spodoptera frugiperda), baculovirus
Excerpt: In the case of VEGF receptor KDR a 1.6-kb cDNA corresponding to the catalytic domain of VEGFR2 or KDR (Genbank accession number AF035121 amino acid 806 to 1356) is cloned into the Pst I site of the pDEST20 Gateway vector (Invitrogen) for the production of a GST-tagged version of that enzyme.
The GST-VEGFR2806-1356 protein is expressed in Sf9 cells (Spodoptera frugiperda) upon infection with recombinant baculovirus construct.
The supernatant is loaded onto a GST-agarose column (Sigma) equilibrated with PBS pH 7.3. Following a four column volume (CV) wash with PBS pH 7.3+1% Triton X-100 and 4 CV wash with buffer B (50 mM Tris pH 8.0, 20% glycerol and 100 mM NaCl), bound proteins are step eluted with 5 CV of buffer B supplemented with 5 mM DTT and 15 mM glutathion. […] Final GST-VEGFR2806-1356 protein preparations concentrations are about 0.7 mg/ml with purity approximating 70%.

[5] = test system: DU145 cells; assay: Scatter assay in DU145 cells (HGF-stimulated); assay type: cell-based; settings: Homo sapiens, DU-145, last dose that created an inhibitory effect on scattering, 24 h, read-out: DU145 SCATT. INHIB IC50
Description: Scatter assays in DU145. The scatter assay is performed as described previously (Miura H, Nishimura K, Tsujimura A, Matsumiya K, Matsumoto K, Nakamura T, et al. Effects of hepatocyte growth factor on E-cadherin-mediated cell-cell adhesion in DU145 prostate cancer cells. Urology 2001; 58(6):1064-9) for DU145 prostate carcinoma cells with the indicated modifications. In brief, DU145 cells (ATCC) are seeded in 24-well plates at a density of 7×10^3 cells/well in MEM medium complemented with 10% FBS and cultured for 48 h, to allow the formation of small compact colonies of cells. Inhibitors are subsequently added at a range of doses (0.00032-10 uM) for 3 h. Cells are then stimulated to migrate by the addition of HGF (in the form of conditioned medium from 293T cells over-expressing the human HGF gene) and the culture is continued for another 24 h. The IC50 values is defined as the last dose that created an inhibitory effect on scattering. For the purpose of standardization a control is carried on every test plates for the DU145 scattering assays.

T1 sequence (P08581 25-1390): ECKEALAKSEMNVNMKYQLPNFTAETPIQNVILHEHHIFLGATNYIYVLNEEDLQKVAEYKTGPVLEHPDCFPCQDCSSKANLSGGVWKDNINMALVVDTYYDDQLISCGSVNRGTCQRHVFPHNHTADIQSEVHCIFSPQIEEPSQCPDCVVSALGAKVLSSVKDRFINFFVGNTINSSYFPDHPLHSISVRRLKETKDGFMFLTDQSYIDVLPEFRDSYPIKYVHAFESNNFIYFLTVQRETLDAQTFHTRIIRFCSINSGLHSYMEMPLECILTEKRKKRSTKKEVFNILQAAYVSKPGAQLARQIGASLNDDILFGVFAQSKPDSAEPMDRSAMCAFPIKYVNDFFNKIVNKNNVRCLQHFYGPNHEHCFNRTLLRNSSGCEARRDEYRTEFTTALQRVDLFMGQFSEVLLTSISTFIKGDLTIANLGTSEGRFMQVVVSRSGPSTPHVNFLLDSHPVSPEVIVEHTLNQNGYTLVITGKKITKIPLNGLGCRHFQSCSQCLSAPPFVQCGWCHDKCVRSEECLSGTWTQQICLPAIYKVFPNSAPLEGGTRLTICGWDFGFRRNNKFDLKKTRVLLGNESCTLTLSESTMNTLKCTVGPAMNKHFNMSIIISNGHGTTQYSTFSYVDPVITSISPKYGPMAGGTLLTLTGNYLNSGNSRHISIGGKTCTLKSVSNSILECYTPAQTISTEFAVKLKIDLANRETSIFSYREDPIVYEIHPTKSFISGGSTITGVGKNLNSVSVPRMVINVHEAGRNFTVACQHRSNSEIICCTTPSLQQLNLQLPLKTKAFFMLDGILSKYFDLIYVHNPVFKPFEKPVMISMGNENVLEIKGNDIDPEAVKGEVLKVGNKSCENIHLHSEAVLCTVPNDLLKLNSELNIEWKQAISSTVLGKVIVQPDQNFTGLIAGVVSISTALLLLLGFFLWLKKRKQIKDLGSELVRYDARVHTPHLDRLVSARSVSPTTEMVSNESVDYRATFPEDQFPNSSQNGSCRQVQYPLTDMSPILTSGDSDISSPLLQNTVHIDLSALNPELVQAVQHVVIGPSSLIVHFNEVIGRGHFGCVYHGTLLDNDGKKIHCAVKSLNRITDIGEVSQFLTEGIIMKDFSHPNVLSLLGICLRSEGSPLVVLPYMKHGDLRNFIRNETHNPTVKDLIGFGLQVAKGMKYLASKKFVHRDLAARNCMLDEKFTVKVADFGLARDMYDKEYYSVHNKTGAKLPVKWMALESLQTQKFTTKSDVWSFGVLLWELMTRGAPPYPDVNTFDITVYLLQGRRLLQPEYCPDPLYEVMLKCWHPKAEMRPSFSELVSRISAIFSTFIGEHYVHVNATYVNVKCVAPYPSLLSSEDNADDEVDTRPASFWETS
Sequence of recombinant human c-Met/HGF receptor (P08581 1078-1337): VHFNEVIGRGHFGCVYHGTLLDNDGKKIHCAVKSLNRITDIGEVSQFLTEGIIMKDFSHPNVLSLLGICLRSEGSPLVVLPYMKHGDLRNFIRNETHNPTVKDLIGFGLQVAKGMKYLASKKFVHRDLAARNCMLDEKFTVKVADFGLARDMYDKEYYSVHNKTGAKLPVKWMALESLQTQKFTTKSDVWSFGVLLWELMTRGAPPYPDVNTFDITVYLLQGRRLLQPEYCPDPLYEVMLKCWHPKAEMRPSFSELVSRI
T2 sequence (P35968 806-1356): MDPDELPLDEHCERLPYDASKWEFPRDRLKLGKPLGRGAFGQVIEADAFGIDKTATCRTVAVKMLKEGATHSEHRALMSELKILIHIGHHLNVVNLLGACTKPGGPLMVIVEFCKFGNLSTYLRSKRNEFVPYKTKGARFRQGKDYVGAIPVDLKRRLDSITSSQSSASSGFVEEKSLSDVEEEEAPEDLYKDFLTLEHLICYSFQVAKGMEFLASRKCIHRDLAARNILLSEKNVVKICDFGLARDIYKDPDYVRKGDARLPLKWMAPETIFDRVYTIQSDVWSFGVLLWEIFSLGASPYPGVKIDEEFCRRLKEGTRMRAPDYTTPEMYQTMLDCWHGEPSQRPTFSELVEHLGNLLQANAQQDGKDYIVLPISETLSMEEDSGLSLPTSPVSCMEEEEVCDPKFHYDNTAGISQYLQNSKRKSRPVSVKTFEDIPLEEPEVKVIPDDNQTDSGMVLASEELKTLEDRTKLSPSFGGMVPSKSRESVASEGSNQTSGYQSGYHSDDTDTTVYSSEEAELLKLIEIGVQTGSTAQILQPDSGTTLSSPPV

Row | Compound | IC50 [1] | IC50 [2] | IC50 [3] | IC50 [4] | IC50 [5]
1 | O=C(Nc1ccccc1)C1(C(=O)Nc2ccc(Oc3ccnc4cc(-c5ccc(CNCC(F)(F)F)cc5)sc34)c(F)c2)CC1 | < 250 nM | < 250 nM | < 250 nM | < 250 nM | < 250 nM
2 | COCCNCCc1ccc(-c2cc3nccc(Oc4ccc(NC(=O)CC(=O)Nc5ccccc5)cc4F)c3s2)cc1 | < 250 nM | 250 to 500 nM | 250 to 500 nM | < 250 nM | 250 to 500 nM
3 | CS(=O)(=O)CCNCc1ccc(-c2cc3nccc(Oc4ccc(NC(=O)C5(C(=O)Nc6ccccc6)CC5)cc4F)c3s2)cc1 [drawing 340] | < 250 nM | < 250 nM | < 250 nM | < 250 nM | < 250 nM
4 | COCCNCc1cnc(-c2cc3nccc(Oc4ccc(NC(=O)C5(C(=O)Nc6ccccc6)CC5)cc4F)c3s2)n1C | < 250 nM | < 250 nM | < 250 nM | < 250 nM | < 250 nM
5 | COCCNCc1ccc(-c2cc3nccc(Oc4ccc(NC(=O)CC(=O)Nc5ccc(F)cc5)cc4F)c3s2)nc1 | < 250 nM | < 250 nM | < 250 nM | < 250 nM | 250 to 500 nM
6 | COCCNCc1cccc(-c2cc3nccc(Oc4ccc(NC(=O)NC(=O)Cc5ccc(F)cc5)cc4F)c3s2)c1 | < 250 nM | 250 to 500 nM | > 1000 nM | 250 to 500 nM | 250 to 500 nM
7 | CSCCNCc1ccc(-c2cc3nccc(Oc4ccc(NC(=S)NC(=O)Cc5ccccc5)cc4F)c3s2)cc1 | < 250 nM | < 250 nM | 250 to 500 nM | < 250 nM | 250 to 500 nM
8 | COCCNCCn1cc(-c2cc3nccc(Oc4ccc(NC(=O)C5(C(=O)Nc6ccccc6)CC5)cc4F)c3s2)cn1 | < 250 nM | < 250 nM | < 250 nM | < 250 nM | < 250 nM
9 | COCCNCc1ccc(-c2cc3nccc(Oc4ccc(NC(=S)NC(=O)Cc5ccccc5)cc4F)c3s2)s1 | < 250 nM | < 250 nM | > 1000 nM | < 250 nM | 250 to 500 nM
10 | COCCNCCn1cc(-c2cc3nccc(Oc4ccc(NC(=O)C5(C(=O)Nc6ccc(F)cc6)CC5)cc4F)c3s2)cn1 | < 250 nM | < 250 nM | < 250 nM | < 250 nM | < 250 nM
11 | COCCNCc1ccc(-c2cc3nccc(Oc4ccc(NC(=O)CC(=O)Nc5ccccc5)cc4F)c3s2)cc1 | < 250 nM | 250 to 500 nM | 250 to 500 nM | < 250 nM | 250 to 500 nM
12 | COCCNCc1ccc(-c2cc3nccc(Oc4ccc(NC(=O)C5(C(=O)Nc6ccccc6)CC5)cc4F)c3s2)o1 [drawing 326] | < 250 nM | < 250 nM | 250 to 500 nM | < 250 nM | 250 to 500 nM
13 | COCCNCc1ccc(-c2cc3nccc(Oc4ccc(NC(=S)NC(=O)Cc5ccc(F)cc5)cc4F)c3s2)cn1 [drawing 309] | < 250 nM | < 250 nM | 250 to 500 nM | < 250 nM | < 250 nM
14 | COCCNCc1ccc(-c2cc3nccc(Oc4ccc(NC(=O)CC(=O)N(C)c5ccccc5)cc4F)c3s2)nc1 [drawing 346] | < 250 nM | < 250 nM | 250 to 500 nM | < 250 nM | 250 to 500 nM
15 | COCCNCCC(=O)N1CC=C(c2cc3nccc(Oc4ccc(NC(=O)CC(=O)N(C)c5ccccc5)cc4F)c3s2)CC1 | < 250 nM | < 250 nM | 250 to 500 nM | < 250 nM | < 250 nM
16 | COCCNCCc1cccc(-c2cc3nccc(Oc4ccc(NC(=S)NC(=O)Cc5ccc(F)cc5)cc4F)c3s2)c1 | < 250 nM | < 250 nM | 250 to 500 nM | < 250 nM | < 250 nM
17 | COCCNCc1ccc(-c2cc3nccc(Oc4ccc(NC(=O)CC(=O)N(C)c5ccc(F)cc5)cc4F)c3s2)nc1 [drawing 352] | < 250 nM | < 250 nM | 250 to 500 nM | < 250 nM | 250 to 500 nM
18 | COCCNCc1cccc(-c2cc3nccc(Oc4ccc(NC(=O)CC(=O)Nc5ccccc5)cc4F)c3s2)c1 | < 250 nM | 250 to 500 nM | 250 to 500 nM | < 250 nM | 250 to 500 nM
19 | CS(=O)(=O)CCNCc1ccc(-c2cc3nccc(Oc4ccc(NC(=S)NC(=O)Cc5ccc(F)cc5)cc4F)c3s2)cc1 | < 250 nM | < 250 nM | 250 to 500 nM | < 250 nM | 250 to 500 nM
20 | COC[C@H](C)NCc1ccc(-c2cc3nccc(Oc4ccc(NC(=S)NC(=O)Cc5ccccc5)cc4F)c3s2)cc1 | < 250 nM | 250 to 500 nM | 250 to 500 nM | < 250 nM | 250 to 500 nM
21 | COCCNCc1ccc(-c2cc3nccc(Oc4ccc(NC(=O)C5(C(=O)Nc6ccccc6)CC5)cc4F)c3s2)cc1 [drawing 310] | < 250 nM | < 250 nM | < 250 nM | < 250 nM | < 250 nM
22 | COCCNCc1cnc(-c2cc3nccc(Oc4ccc(NC(=O)CC(=O)Nc5ccccc5)cc4F)c3s2)n1C [drawing 345] | < 250 nM | < 250 nM | 250 to 500 nM | < 250 nM | 250 to 500 nM
23 | COCCNCCc1cccc(-c2cc3nccc(Oc4ccc(NC(=O)C5(C(=O)Nc6ccccc6)CC5)cc4F)c3s2)c1 | < 250 nM | < 250 nM | < 250 nM | < 250 nM | < 250 nM
